Earlier results, collected in patent US7705031B2 (priority 2003, dated 2010).

Legend:
neuropathic pain = settings: human, in vivo
NaV1.3 = NaV1.3 (Homo sapiens, UniProt Q9NY46); settings: read-out: TTX IC50
NaV1.3, sequence (Q9NY46 whole entry, looked up): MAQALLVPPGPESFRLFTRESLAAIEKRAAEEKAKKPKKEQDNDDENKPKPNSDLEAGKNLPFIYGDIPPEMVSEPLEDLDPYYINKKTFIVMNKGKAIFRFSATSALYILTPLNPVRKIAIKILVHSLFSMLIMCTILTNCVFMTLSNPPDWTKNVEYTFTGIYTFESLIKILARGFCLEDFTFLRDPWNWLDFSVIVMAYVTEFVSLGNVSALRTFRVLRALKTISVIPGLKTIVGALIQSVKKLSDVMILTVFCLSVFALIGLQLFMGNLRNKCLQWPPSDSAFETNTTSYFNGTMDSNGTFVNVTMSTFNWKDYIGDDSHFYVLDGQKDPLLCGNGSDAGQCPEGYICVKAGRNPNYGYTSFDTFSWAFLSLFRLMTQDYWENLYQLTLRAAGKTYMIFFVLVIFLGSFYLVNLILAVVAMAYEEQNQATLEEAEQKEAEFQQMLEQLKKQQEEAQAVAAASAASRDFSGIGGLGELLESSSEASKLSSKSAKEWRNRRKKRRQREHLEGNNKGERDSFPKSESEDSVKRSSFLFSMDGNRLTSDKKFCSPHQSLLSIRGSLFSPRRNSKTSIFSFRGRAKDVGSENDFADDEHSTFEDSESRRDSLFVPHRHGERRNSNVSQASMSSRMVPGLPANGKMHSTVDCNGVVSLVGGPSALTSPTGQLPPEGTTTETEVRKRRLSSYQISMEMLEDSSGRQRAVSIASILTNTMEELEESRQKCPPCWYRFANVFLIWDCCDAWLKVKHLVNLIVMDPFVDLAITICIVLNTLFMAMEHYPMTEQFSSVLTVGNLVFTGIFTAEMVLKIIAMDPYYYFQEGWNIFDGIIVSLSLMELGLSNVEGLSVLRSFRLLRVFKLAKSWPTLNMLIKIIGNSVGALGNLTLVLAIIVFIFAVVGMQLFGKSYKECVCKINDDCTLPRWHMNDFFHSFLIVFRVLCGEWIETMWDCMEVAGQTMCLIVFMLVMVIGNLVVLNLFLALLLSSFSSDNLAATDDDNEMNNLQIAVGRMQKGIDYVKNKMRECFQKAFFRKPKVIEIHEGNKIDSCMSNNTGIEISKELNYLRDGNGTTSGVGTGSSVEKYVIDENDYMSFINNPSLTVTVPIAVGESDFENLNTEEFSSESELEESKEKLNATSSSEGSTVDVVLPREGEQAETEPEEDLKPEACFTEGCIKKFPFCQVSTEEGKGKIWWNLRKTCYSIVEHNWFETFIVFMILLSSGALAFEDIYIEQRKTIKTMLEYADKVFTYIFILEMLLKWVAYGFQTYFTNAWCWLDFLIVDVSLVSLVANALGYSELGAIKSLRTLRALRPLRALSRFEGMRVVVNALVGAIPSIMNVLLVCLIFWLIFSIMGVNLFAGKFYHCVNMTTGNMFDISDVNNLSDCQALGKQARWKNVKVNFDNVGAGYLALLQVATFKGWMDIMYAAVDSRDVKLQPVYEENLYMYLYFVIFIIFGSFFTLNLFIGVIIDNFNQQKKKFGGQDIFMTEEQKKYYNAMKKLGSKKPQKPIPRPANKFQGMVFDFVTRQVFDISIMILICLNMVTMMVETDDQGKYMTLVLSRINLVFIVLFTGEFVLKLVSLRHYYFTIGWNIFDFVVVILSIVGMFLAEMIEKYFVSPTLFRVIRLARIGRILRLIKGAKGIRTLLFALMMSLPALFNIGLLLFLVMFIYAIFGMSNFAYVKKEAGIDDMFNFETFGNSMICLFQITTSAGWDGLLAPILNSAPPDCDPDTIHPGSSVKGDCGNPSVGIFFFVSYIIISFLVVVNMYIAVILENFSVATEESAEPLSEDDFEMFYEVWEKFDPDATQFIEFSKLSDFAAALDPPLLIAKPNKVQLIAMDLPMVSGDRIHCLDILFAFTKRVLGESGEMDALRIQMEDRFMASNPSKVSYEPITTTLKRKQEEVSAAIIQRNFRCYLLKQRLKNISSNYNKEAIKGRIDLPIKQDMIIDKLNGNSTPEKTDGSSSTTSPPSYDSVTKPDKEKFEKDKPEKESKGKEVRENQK

## NCC1(CC(=O)O)CCCCC1 [Gabapentin]
Neuropathic pain
  share of patients in whom the drug works: 60%

## NC1=N[C@H](O)[C@H]2[C@H]3O[C@]4(O)O[C@@H]([C@@H](O)[C@@]2(N1)[C@@H]4O)[C@]3(O)CO [TTX, tetrodotoxin]
NaV1.3
  IC50: 15 nM
